According to patent US11026944B2, “Compositions and methods for treating insomnia” (Eisai R&D Management Co., Ltd., priority 2014, dated 2021):

System: subjects with insomnia
Assay: 201 Study: polysomnography (SE, LPS, WASO) dose-response
Type: in vivo, human
Experimental: This was a multi-center, randomized, double-blind, adaptive design, dose-response study in subjects with insomnia. Subjects were randomized to 1 of 6 doses of compound A (1 mg, 2.5 mg, 5 mg, 10 mg, 15 mg and 25 mg) or placebo.
The study had 2 phases: Prerandomization and Randomization. The Prerandomization Phase lasted up to 21 days and consisted of a Screening Period (Days-21 to -2) and a Baseline Period (Day-1). After the Baseline Period, all eligible subjects were randomized in a double-blind manner to receive compound A or placebo for 15 nights during the Treatment Period (Days 1 to 15). All subjects then received placebo in a single-blind manner, for 2 nights (Days 16 to 17) during the Rebound Insomnia Assessment Period (Days 16 to 18). […] All subjects came to the clinic for screening procedures. During the Screening Period, subjects completed the Sleep Diary each day. Polysomnographic sleep was measured during the Screening Period on 2 consecutive nights between Day-9 and Day-3. The 8-hour polysomnograms (PSGs) were started at the median habitual bedtime calculated from responses on the Sleep Diary, which were completed for 7 days before the first PSG night. These recordings served as both eligibility screening PSGs and as Baseline PSGs. Subjects could leave the clinic between the screening/Baseline PSG nights.
All subjects returned to the clinic on Day-1 for Baseline Period procedures. They remained in the clinic until Day 3. Morning assessments on Day 1 provided the Baseline values for the KSS, the Digit Symbol Substitution Test (DSST), and the Reaction Time Index (RTI). Assessments at 6 hours after waketime provided the Baseline values for the Waking Function Battery (WFB), and the Profile of Mood States-Brief (POMS-B). Subjects were then randomized to receive 1 of 6 doses of compound A or placebo for the next 15 days. Study drugs were tablets containing compound A-matched placebo or compound A of 1 mg, 2.5 mg, 5 mg, or 10 mg and to be ingested 30 minutes before the median habitual bedtime calculated from their Sleep Diary responses during the Screening Period. An 8-hour PSG, starting at the same bedtime as used for the screening and Baseline PSG nights, was recorded on the first 2 treatment nights (Days 1 and 2). The Sleep Diary continued to be completed each day in the clinic, and assessments of insomnia severity (ISI), next-day residual effects (KSS, DSST, and RTI) were conducted while subjects were in the clinic. On specified study days, plasma concentrations of compound A were assessed while subjects were in the clinic in the morning after awakening and at trough just before dosing.
Subjects continued to take compound A or placebo 30 minutes before their anticipated, self-selected bedtime and continued to complete the Sleep Diary each day while at home during the Treatment Period. On Day 14 of the Treatment Period, subjects returned to the clinic. They remained in the clinic for 4 nights and the intervening days until Day 18. Eight-hour PSGs were recorded each night in the clinic, to start at the median habitual bedtime calculated from responses on the Sleep Diary completed on Days 3 to 13. The Sleep Diary continued to be completed each day in the clinic, and the ISI, KSS, DSST, RTI, were administered at prespecified time points during the daytime hours.
In Table 5, “Baseline” was defined as the mean of the screening PSG 1 and 2, within −9 to −3 days of randomization. “LS Means Diff” refers to the differences between LS Means of Placebo and each compound A dose, “95% CI” means to 95% CI of LS Means Diff. “p-value” was analyzed using analysis of covariance (ANCOVA) with baseline as a covariate.
In Table 7, “Baseline” was defined as the mean of the screening PSG 1 and 2, within −9 to −3 days of randomization. “p-value” was analyzed using analysis of covariance (ANCOVA) with baseline as a covariate.
In Table 8, “Baseline” was defined as the mean of the screening PSG 1 and 2, within −9 to −3 days of randomization. […]

`Cc1ncc(OC[C@@]2(c3cccc(F)c3)C[C@H]2C(=O)Nc2ccc(F)cn2)c(C)n1` [Compound A, (1R,2 S)-2-(((2,4-dimethylpyrimidin-5-yl)oxy)methyl)-2-(3-fluorophenyl)-N-(5-fluoropyridin-2-yl) cyclopropanecarboxamide] was tested, and the “Change from Baseline in LPS, Mean of Days 1 & 2: Geometric Mean Ratio (compound A/placebo)” value (1 mg nightly) was 0.77, the “Change from Baseline in LPS, Mean of Days 14 & 15: Geometric Mean Ratio (compound A /placebo)” value (1 mg nightly) was 0.73 and the “Change from Baseline in SE, Mean of Days 1 & 2: LS Means Diff vs placebo” value (1 mg nightly) was 4.57%. For the same molecule, the “Change from Baseline in SE, Mean of Days 1 & 2: Mean” value (1 mg nightly) was 21.1%, the “Change from Baseline in SE, Mean of Days 14 & 15: LS Means Diff vs placebo” value (1 mg nightly) was 0.34% and the “Change from Baseline in SE, Mean of Days 14 & 15: Mean” value (1 mg nightly) was 17.5%. For the same molecule, the “Change from Baseline in WASO, Mean of Days 1 & 2: LS Means Diff vs placebo” value (1 mg nightly) was -11.1 min, the “Change from Baseline in WASO, Mean of Days 1 & 2: Mean” value (1 mg nightly) was -60.9 min and the “Change from Baseline in WASO, Mean of Days 14 & 15: LS Means Diff vs placebo” value (1 mg nightly) was 5.7 min. The “Change from Baseline in WASO, Mean of Days 14 & 15: Mean” value (1 mg nightly) was -43.6 min, the “LPS geometric mean ratio vs placebo, significance” value (1 mg, Mean of Days 1/2) was “not statistically significant” and the “Change from Baseline in LPS, Mean of Days 1 & 2: Geometric Mean Ratio (compound A/placebo)” value (2.5 mg nightly) was 0.55. For the same molecule, the “Change from Baseline in LPS, Mean of Days 14 & 15: Geometric Mean Ratio (compound A /placebo)” value (2.5 mg nightly) was 0.49, the “Change from Baseline in SE, Mean of Days 1 & 2: LS Means Diff vs placebo” value (2.5 mg nightly) was 4.44% and the “Change from Baseline in SE, Mean of Days 1 & 2: Mean” value (2.5 mg nightly) was 21.3%. The “Change from Baseline in SE, Mean of Days 14 & 15: LS Means Diff vs placebo” value (2.5 mg nightly) was 3.94%, the “Change from Baseline in SE, Mean of Days 14 & 15: Mean” value (2.5 mg nightly) was 20.7% and the “Change from Baseline in WASO, Mean of Days 1 & 2: LS Means Diff vs placebo” value (2.5 mg nightly) was -2.3 min. For the same molecule, the “Change from Baseline in WASO, Mean of Days 1 & 2: Mean” value (2.5 mg nightly) was -51.1 min, the “Change from Baseline in WASO, Mean of Days 14 & 15: LS Means Diff vs placebo” value (2.5 mg nightly) was -2.3 min and the “Change from Baseline in WASO, Mean of Days 14 & 15: Mean” value (2.5 mg nightly) was -48.9 min. For the same molecule, the “Change from Baseline in LPS, Mean of Days 1 & 2: Geometric Mean Ratio (compound A/placebo)” value (5 mg nightly) was 0.60, the “Change from Baseline in LPS, Mean of Days 14 & 15: Geometric Mean Ratio (compound A /placebo)” value (5 mg nightly) was 0.47 and the “Change from Baseline in SE, Mean of Days 1 & 2: LS Means Diff vs placebo” value (5 mg nightly) was 5.74%. For the same molecule, the “Change from Baseline in SE, Mean of Days 1 & 2: Mean” value (5 mg nightly) was 21.2%, the “Change from Baseline in SE, Mean of Days 14 & 15: LS Means Diff vs placebo” value (5 mg nightly) was 5.76% and the “Change from Baseline in SE, Mean of Days 14 & 15: Mean” value (5 mg nightly) was 21.0%. The “Change from Baseline in WASO, Mean of Days 1 & 2: LS Means Diff vs placebo” value (5 mg nightly) was -11.3 min, the “Change from Baseline in WASO, Mean of Days 1 & 2: Mean” value (5 mg nightly) was -55.6 min and the “Change from Baseline in WASO, Mean of Days 14 & 15: LS Means Diff vs placebo” value (5 mg nightly) was -10.7 min. For the same molecule, the “Change from Baseline in WASO, Mean of Days 14 & 15: Mean” value (5 mg nightly) was -52.2 min, the “LPS, Days 1/2 compared to Days 14/15” value (10 mg) was “further improvement in LPS over time” and the “Change from Baseline in LPS, Mean of Days 1 & 2: Geometric Mean Ratio (compound A/placebo)” value (10 mg nightly) was 0.54. The “Change from Baseline in LPS, Mean of Days 14 & 15: Geometric Mean Ratio (compound A /placebo)” value (10 mg nightly) was 0.32, the “Change from Baseline in SE, Mean of Days 1 & 2: LS Means Diff vs placebo” value (10 mg nightly) was 8.09% and the “Change from Baseline in SE, Mean of Days 1 & 2: Mean” value (10 mg nightly) was 21.9%. The “Change from Baseline in SE, Mean of Days 14 & 15: LS Means Diff vs placebo” value (10 mg nightly) was 7.78%, the “Change from Baseline in SE, Mean of Days 14 & 15: Mean” value (10 mg nightly) was 21.7% and the “Change from Baseline in WASO, Mean of Days 1 & 2: LS Means Diff vs placebo” value (10 mg nightly) was -19.8 min. For the same molecule, the “Change from Baseline in WASO, Mean of Days 1 & 2: Mean” value (10 mg nightly) was -56.7 min, the “Change from Baseline in WASO, Mean of Days 14 & 15: LS Means Diff vs placebo” value (10 mg nightly) was -14.7 min and the “Change from Baseline in WASO, Mean of Days 14 & 15: Mean” value (10 mg nightly) was -48.5 min. The “Change from Baseline in LPS, Mean of Days 1 & 2: Geometric Mean Ratio (compound A/placebo)” value (15 mg nightly) was 0.52, the “Change from Baseline in LPS, Mean of Days 14 & 15: Geometric Mean Ratio (compound A /placebo)” value (15 mg nightly) was 0.41 and the “Change from Baseline in SE, Mean of Days 1 & 2: LS Means Diff vs placebo” value (15 mg nightly) was 10.06%. For the same molecule, the “Change from Baseline in SE, Mean of Days 1 & 2: Mean” value (15 mg nightly) was 23.8%, the “Change from Baseline in SE, Mean of Days 14 & 15: LS Means Diff vs placebo” value (15 mg nightly) was 7.89% and the “Change from Baseline in SE, Mean of Days 14 & 15: Mean” value (15 mg nightly) was 21.2%.
